According to publication PMC12183619, “A Phase 1 Safety Study of Evexomostat (SDX-7320) in Patients with Late-Stage Cancer: An Antiangiogenic, Insulin-Sensitizing Drug Conjugate Targeting METAP2” (Cancer Research Communications, 2025):

What was measured:
[1] = system: METAP2; design: method as in PMID 16525646, PMID 9177176, PMID 10574784; conditions: inactivates aminopeptidase activity; cited from earlier work
[2] = Plasma pharmacokinetics by LC/MS-MS after subcutaneous dosing; format: in vivo, human
Protocol: Blood samples were collected to enable PK bioanalyses at the following timepoints: cycles 1, 3, and 6: predose, 3, 6, 24, 48, and 96 hours after dosing, and days 8 (predose on the Q7D schedule), 15 (predose) and 22 (predose on the Q7D schedule); cycles 2, 4, 5, 7, and beyond: days 1 (predose), 8 (predose on the Q7D schedule), 15 (predose), and 22 (predose on the Q7D schedule). PK samples were collected on day 1 (predose, 3, 6, and 24 hours) for cycle 1 and then predose days 1 and 15 for even cycles and predose for odd cycles thereafter. Analysis of exploratory biomarkers was conducted using commercially available ELISA kits.
The levels of the released small-molecule METAP2 inhibitor SDX-7539 in plasma were measured using a validated LC/MS-MS method with a lower limit of quantification (LLOQ) of 10.0 pg/mL. The levels of the polymer–drug conjugate evexomostat in plasma were measured using a fit-for-purpose LC/MS-MS method. Target engagement was assessed at various times postdose in lysed whole blood using a validated ELISA designed to measure uninhibited METAP2 ([25]).
Analyses were conducted using SAS v 9.4 (SAS Institute) unless otherwise noted. AEs were coded in MedDRA v18.1 and analyzed by system organ class/preferred term. Treatment-related AEs (TRAE) were tabulated for all events occurring in two patients or more. Response was assessed using RECIST v1.1. PK analysis utilized WinNonlin v8.1 and a noncompartmental analysis approach.

[3] = system: patients; design: method as in PMID 10473076, PMID 12431966; conditions: prior clinical trials; cited from earlier work
[4] = system: VEGF-D; design: method as in PMID 17605814, PMID 24220935; conditions: cited from earlier work
[5] = released active moiety after subcutaneous evexomostat

CO[C@@H]1[C@H](OC(=O)/C=C/C=C/C=C/C=C/C(=O)O)CC[C@]2(CO2)[C@H]1[C@@]1(C)O[C@@H]1CC=C(C)C [Fumagillin]
binding to METAP2 [1]: potently and irreversibly binds to METAP2

CO[C@@H]1[C@H](OC(=O)NC2CCC(N)CC2)CC[C@]2(CO2)[C@H]1[C@@]1(C)O[C@@H]1CC=C(C)C (some centres unmarked) [SDX-7539]
relationship of plasma Cmax and AUC in cycle 1 with reductions in platelets ([2]; % change from baseline to C1D8 or C1D15): potential relationship
time with detectable plasma levels ([2]; following a single dose of evexomostat): 7 days
plasma exposure (Cmax, AUC0-t) vs dose ([2]; released SDX-7539 vs administered dose of SDX-7320): variability with increasing dose
Tmax in plasma [2, 5]: 29 h
Tmax in plasma, range [2, 5]: 6 to 96 h

CO[C@@H]1[C@H](OC(=O)NC(=O)CCl)CC[C@]2(CO2)[C@H]1[C@@]1(C)O[C@@H]1CC=C(C)C [TNP-470]
dose-limiting CNS toxicities [3]: dose-limiting CNS toxicities were observed

CCN(CC)CCNC(=O)c1c(C)[nH]c(/C=C2\C(=O)Nc3ccc(F)cc32)c1C [sunitinib]
change in circulating VEGF-D [4]: increase circulating VEGF-D
